Values belong to the compound of their own block, whether it stands above or below them.
Key:
[1] = tested on: LNCaP cells; assay: Antiproliferation dose-response assay for 72 h; type: cell-based; conditions: Homo sapiens, mean ± SEM of two experiments, read-out: antiproliferative IC50
Experimental: For the top effective KKRs, along with TAX, their potency to reduce the affected PCa cell line growth in a dose-dependent manner was determined using the resazurin fluorescence assay. We followed the same protocols and materials used for the antiproliferation screen assays (Section 4.3.2), with the following modifications. The maximum final KKR concentration used was 40 μM. The concentration of 8X of each KKR working solution in 1% HEPES 7.4 was serially diluted in a 3:1 ratio, compound to buffer, respectively. Each data set was collected from ten data points of 3.7–40 μM range. The control had the KKR substituted with buffer. The related IC50 averages were analyzed for the compounds that affected the cell lines the most.

[2] = tested on: DU145 cells; assay: Scratch migration assay; type: cell-based, human; conditions: preliminary data
Experimental: For in-vitro migration experiments, the PCa metastatic DU145 cell line was used. Cell proliferation and cytotoxicity were monitored for assay validation. The cells (passage # ≤ 10) were grown in fresh media of EMEM 10% FBS, 1% P/S. The cells were seeded in flat-bottom transparent 96-well microplates (100,000 cells/100 μL/well) in EMEM 5% FBS, 1% P/S experimental media. The next day, the confluent cells monolayer was artificially injured by scratching a line across each well, using a 200 μL tip. Immediately, the old media with the detached cells were replaced with 175 μL fresh warm experimental media. Intact cells were then treated with 25 μL of HBSS buffer 7.4 containing tested KKR. In addition to the negative control, KKR11 was tested at gradual concentrations to make finals of 40, 30, 23, 17, and 13 μM. The cells were then incubated for an additional 72 h for gap closure of the control wells.
At the gap closure time point, all cells were subjected to the crystal violet assay that only stains viable cells. Briefly, all media were carefully aspired from cells that were then washed with Ca- and Mg-free PBS. The cells were then fixed with 100 μL 0.25% v/v glutaraldehyde, at 37 °C for 20–30 min incubation time, and dried overnight. The next day, all viable attached cells were stained with a 100 μL crystal violet solution (0.1% in DI-water) for up to 30 min. The solution was then discarded, and the stained cells were kept dry for imaging. Images of the scratched areas were photographed using 10X phase contrast objective lenses of Motic-MXH-100-AE31E-Elite Inverted Microscope.

[3] = tested on: LNCaP cells; assay: Antiproliferation screen assay, resazurin, 72 h; type: cell-based, human
[4] = tested on: LNCaP cells; assay: Viability screen assay, resazurin, 24 h; type: cell-based, human; conditions: 50 μM, 90% viability as margin of cytotoxicity
Experimental: We examined the cytotoxic effects of all 20 synthesized KKRs on the three human PCa cell lines LNCaP, DU145, and PC3, after a 24 h exposure period. Non-toxic TAX was used for comparison. Briefly, cultured cells were seeded in black transparent bottom 96-well microplates at 50,000 cells/175-µL/well in experimental media (RPMI1640 for LNCaP, EMEM for DU145, and DMEM/F12K for PC3), supplied with 5% FBS and 1% P/S. Wells of media without cells were considered blanks and negative controls. The plates were incubated overnight at 37 °C in 5% CO2 to allow cell attachment. For each compound, a working solution of 8X KKR in sterile […] HEPES in HBSS pH buffer of 7.4 was prepared for a final concentration of 50 μM each. The three attached cell types were treated immediately with the related buffer being added to the control wells. A sterile fluorescence-based solution of the resazurin reagent of 0.5 mg/mL in HBSS was prepared. After 24 h, the cells were exposed to 15% v/v of the sterile resazurin reagent, and the plates were re-incubated for 4.5 h to allow redox reaction. All plates were read under 530/590-nm excitation/emission wavelengths using Bio-Tek Synergy HTX Multi-reader as a microplate fluorescence reader.

[5] = target: T1, hMAO-A (Homo sapiens, UniProt P21397); assay: MAO-Glow inhibitory potency (IC50) and relative selectivity; type: biochemical; conditions: mean ± SEM, at least two experiments; LDS 40 μM
T1 construct: purchased Sigma-Aldrich Co. (St. Louis, MO, USA)
T1 sequence (P21397 1-527): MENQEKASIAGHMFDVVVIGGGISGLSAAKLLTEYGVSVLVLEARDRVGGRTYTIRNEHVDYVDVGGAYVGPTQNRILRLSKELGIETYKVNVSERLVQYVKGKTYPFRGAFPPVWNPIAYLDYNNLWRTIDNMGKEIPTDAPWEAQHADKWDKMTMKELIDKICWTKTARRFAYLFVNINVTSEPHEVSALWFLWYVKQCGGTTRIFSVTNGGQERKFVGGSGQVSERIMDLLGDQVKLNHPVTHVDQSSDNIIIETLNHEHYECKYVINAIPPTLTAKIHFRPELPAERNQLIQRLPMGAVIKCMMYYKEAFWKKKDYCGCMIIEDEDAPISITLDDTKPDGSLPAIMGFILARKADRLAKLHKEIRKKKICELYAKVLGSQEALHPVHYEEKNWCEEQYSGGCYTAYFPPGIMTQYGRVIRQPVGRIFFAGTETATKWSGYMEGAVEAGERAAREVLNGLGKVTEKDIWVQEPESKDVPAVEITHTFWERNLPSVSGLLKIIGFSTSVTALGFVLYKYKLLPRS
Experimental: (§1) The inhibitory effects of the synthesized KKRs of hMAO-A and B were tested by measuring the decrease in arbitrary light units (ALU) signal produced by the optimized isozymes using the MAO-Glow™ Assay at 37 °C. In this assay, DMSO stock for each KKR compound was diluted with a reaction buffer of pH 7.4 to make a 4X working solution for a maximum final concentration of 100 μM and ≤1% DMSO. The experiments were run in the absence and presence of 4X the miscellaneous standards of MAO-BIs (DEP, PARG, and SAF) and MAO-AIs (PIRL and CLORG), with similar concentrations. In white opaque 96-well microplates, 12.5 μL of each compound was plated at RT and was followed by 25 μL of 2X cold hMAO-A or hMAO-B, for a final concentration of 0.44 U/mL. A related buffer substituted each isozyme to make the blank wells and substituted each compound to make the negative control wells. Following this, we added 12.5 μL of 4X LDS to make a final substrate concentration of 40- and 4-μM for hMAO-A and hMAO-B, respectively. All screen plates were incubated at 37 °C for 60 min. The plates of 50 μL/well were then taken out from the incubator, and their reactions were stopped by an equal volume of 50 μL of reporter luciferin detection reagent (RLDR). After 30 min, the luminescence signals for all plates were read on a Synergy HTX Multi-reader from Bio-Tek (Winooski, VT, USA).
(§2) The experiments were performed in the presence and absence of the standard PILR. In white opaque 96-well plates, each KKR compound was serially diluted with a reaction buffer of pH 7.4 at the highest possible maximum final concentration, and the least used DMSO (<2%). In blank wells, the related reaction buffer substituted the isozyme. In negative control wells, the reaction buffer substituted each compound concentration. Then, the procedure was carried out as mentioned above (Section 4.2.2), and the reaction was detected on the Bio-Tek Synergy HTX Multi-Reader. The IC50 of each KKR on both isozymes was determined and subsequently the RSA and RSB was calculated.
(§3) Statistical analyses were performed using the GraphPad Prism program (version 6.07 for Windows) from the GraphPad Prism Software Incorporated (San Diego, CA, USA). All data points and parameters were expressed as the mean ± SEM. All parameters were calculated from non-linear and linear regressions with the best R^2 values, no less than 93%. The inhibitory concentration of 50% of isozyme (IC50) of each compound was obtained by the interpolation of a normalized variable slope logarithmic curve. The RSA values of the selected compounds were calculated from their IC50 average means following the equation RSA = hMAO − B IC50/Hmao − A IC50(1)

[6] = target: T2, hMAO-B (Homo sapiens, UniProt P27338); assay: MAO-Glow inhibitory potency (IC50); type: biochemical; conditions: mean ± SEM, at least two experiments; LDS 4 μM
T2 construct: purchased Sigma-Aldrich Co. (St. Louis, MO, USA)
T2 sequence (P27338 1-520): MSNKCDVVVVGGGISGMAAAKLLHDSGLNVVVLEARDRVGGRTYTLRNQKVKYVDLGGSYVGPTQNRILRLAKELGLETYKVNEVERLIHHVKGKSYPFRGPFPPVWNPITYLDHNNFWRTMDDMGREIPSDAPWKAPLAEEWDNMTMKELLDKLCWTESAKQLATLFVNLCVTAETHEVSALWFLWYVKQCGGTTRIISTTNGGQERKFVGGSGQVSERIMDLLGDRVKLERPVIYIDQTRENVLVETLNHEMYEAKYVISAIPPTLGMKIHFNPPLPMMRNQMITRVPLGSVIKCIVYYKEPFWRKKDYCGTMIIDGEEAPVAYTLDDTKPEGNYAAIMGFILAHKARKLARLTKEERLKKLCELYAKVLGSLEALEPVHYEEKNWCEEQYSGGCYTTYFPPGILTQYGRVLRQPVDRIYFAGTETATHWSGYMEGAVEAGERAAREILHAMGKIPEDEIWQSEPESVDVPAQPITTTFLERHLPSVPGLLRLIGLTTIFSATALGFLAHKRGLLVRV
Experimental: as §1, §2, §3

[7] = tested on: LNCaP cells; assay: cells; type: cell-based, human
Experimental: The morphological alterations of the LNCaP cells were imaged, and their percentage proliferation rate was measured after five-days of incubation. The method of subculture and treatment were similar to our antiproliferation assay, with slight modifications. Briefly, the cells were seeded in transparent flat-bottom 96-well microplates with 10,000 cells/175 μL/well of […] experimental media. Following overnight incubation, 20 μM concentration level (~2 × IC50) for each of KKR11, 20, 7, 2A, 21, and the standard PIRL were added to the cells for a total volume of 200 μL/well and re-incubated for five-days. On the day of imaging, 20X phase-contrast images of lid-covered treated and control cells were captured using an inverted microscope. Resazurin was then added for viability detection, and the imaged cells in the wells were read after 4.5 h on the Bio-Tek Synergy HTX Multi-reader.

IC50 [1]: 210 nM
SMILES: CC(=O)O[C@H]1C(=O)[C@@]2(C)[C@H]([C@H](OC(=O)c3ccccc3)[C@]3(O)C[C@H](OC(=O)[C@H](O)[C@@H](NC(=O)c4ccccc4)c4ccccc4)C(C)=C1C3(C)C)[C@]1(OC(C)=O)CO[C@@H]1C[C@@H]2O [TAX, paclitaxel, reference compound]
effect on cell migration [2]: delayed cell migration
antiproliferative effect of clinical standards ([3]; 0.5 μM): highly effective

SMILES: COc1cc(OC)c2c(=O)c(O)c(/C=C/c3ccccc3)oc2c1 [KKR16, (E)-3-hydroxy-5,7-dimethoxy-2-styryl-4H-chromen-4-one]
cytotoxicity / cell viability [4]: affected the LNCaP cells

IC50 [5]: 12 ± 2 nM
IC50 [6]: > 800000 nM
IC50 [1]: > 40000 nM
SMILES: Cc1ccc2c(c1)c1c3n2CCNC3CCC1 (centres unmarked) [PIRL, pirlindole, reference compound]
effect on LNCaP proliferation and cell morphology ([7]; 20 μM, five days, phase contrast): neither significant effects on LNCaP proliferation nor apparent changes in cell morphology
viability at 20 µM ([7]; Homo sapiens, LNCaP, 120 h, read-out: percentage of treated group compared to the viable control): 90%
antiproliferative effect of clinical standards ([3]; 10 μM): none of the standards showed a significant antiproliferative effect

SMILES: COc1cc(-c2cc(=O)c3ccccc3o2)cc(OC)c1OC [KKR22, 2-(3,4,5-trimethoxyphenyl)-4H-chromen-4-one]
cytotoxicity / cell viability [4]: affected the LNCaP cells

— PMC7249060, “The Antiproliferative Effects of Flavonoid MAO Inhibitors on Prostate Cancer Cells” (Molecules, 2020)
